From patent US20100120798A1, “SUBSTITUTED PIPERIDINES CONTAINING A HETEROARYLAMIDE OR HETEROARYLPHENYL MOIETY” (ASTEX THERAPEUTICS LIMITED, priority 2006, published 2010)

Experiment: In vitro MDA-MB-468 human breast adenocarcinoma GSK-3 phosphorylation assay
Assay type: cell-based
Conditions: mean IC50, MDA-MB-468 cells, 2 hours with compound, phospho-GSK-3β
From the text: This assay determines the ability of test compounds to inhibit phosphorylation of Serine-9 residue in Glycogen Synthase Kinase-3beta (GSK-3β) as a surrogate marker of cellular PKB (Akt) activity, as assessed using Acumen Explorer Fluorescent Plate-Reader technology. A MDA-MB-468 human breast adenocarcinoma cell line (LGC Promochem, Teddington, Middlesex, UK, Catalogue No. HTB-132) was routinely maintained in Dulbecco's modified Eagle's growth medium (DMEM; Invitrogen Limited, Paisley, UK Catalogue No. 11966-025) containing 10% heat-inactivated foetal calf serum (FCS; Sigma, Poole, Dorset, UK, Catalogue No. F0392) and 1% L-glutamine (Gibco, Catalogue No. 25030-024) at 37° C. with 5% CO2 up to a confluency of 70-90%.
For the phosphorylation assay, the cells were detached from the culture flask using Trypsin-EDTA (Invitrogen Limited, Catalogue No. 25300-062) and seeded into the wells of a black transparent-bottom Corning Costar Polystyrene 96 well plate (Fisher Scientific UK, Loughborough, Leicestershire, UK; Catalogue No. 3904 and DPS-130-020K) at a density of 5000 cells per well in 100 μl of complete growth media. The cells were incubated overnight at 37° C. with 5% CO2 to allow them to adhere.
On day 2, the cells were treated with test compounds and incubated for 2 hours at 37° C. with 5% CO2. Test compounds were prepared as 10 mM stock solutions in DMSO and dosed directly to required concentration into test wells using non-contact (acoustic dispensing of multiple 2.5 nl droplets directly into assay wells) ECHO dosing technology (Labcyte Inc. Sunnyvale, Calif., USA). Each plate contained control wells without test compound.
20 μl of fixing buffer (Phosphate Buffered Saline (PBS) containing 10% formaldehyde; Sigma; Catalogue No. F1635) was then added to each well to give a final well concentration 1.6%. Plates were then incubated for 30 minutes at room temperature prior to the fixative being removed. Each well was washed once with 250 μl of PBS and then 50 μl PBS added to each well. PBS was then aspirated and cells permeabilised and blocked by incubating each well with 50 μl of permeabilisation/blocking buffer (PBS containing 0.5% Tween 20 (Sigma; Catalogue No. P5927) and 5% Marvel Milk Powder (Andrews Pharmacy Ltd, Macclesfield, Cheshire, UK; Catalogue No. APC100199)) for 1 hour at room temperature prior to staining.
Following removal of Perm/Block buffer, 50 μl of primary anti-phospho-GSK-3β antibody (Cell Signalling Technology (New England Biolabs (Uk) Ltd.), Hitchin, Hertfordshire, UK; Catalogue No. 9336 diluted 1:400 in Blocking buffer (PBS containing 5% Marvel and 0.05% Tween/Polysorbate 20) was added to each well and incubated overnight at 4° C.
Each well was washed three times in 250 μl of wash buffer (PBS containing 0.05% polysorbate 20), and cells incubated for 1 hour at room temperature with 50 μl of secondary fluorescently-labelled anti-rabbit Alexa Fluor 488 antibody (Molecular Probes, Invitrogen Limited, Catalogue No. A11008) diluted 1:750 in blocking buffer. Plates were washed three times in 250 μl of wash buffer and stored containing 50 μl of PBS at 4° C. until required.
Plates were analysed using an Acumen Explorer Plate-reader to quantify level of fluorescent signal that represents quantity of phosphorylated-GSK-3β.
IC50 calculation—IC50 is the concentration of compound required to give 50% effect over the range of activity affected by the compound, between maximum (no compound) and minimum (excess level of compound) response control data. IC50 values were determined by fitting background corrected, dose response assay data to a 4 parameter logistic curve fit equation model with the minimum response set to zero. This was done using an in-house developed algorithm within the Origin graphing software package (OriginLab Corporation, Northampton, Mass., USA). […]

| Compound | IC50 |
| --- | --- |
| NC1(C(=O)NCc2ccncc2)CCN(c2ncnc3[nH]ccc23)CC1 [Example 43, 4-Amino-N-(pyridin-4-ylmethyl)-1-(7H-pyrrolo[2,3-d]pyrimidin-4-yl)piperidine-4-carboxamide] | > 19000 nM |
| NC1(C(=O)NCc2cc(-c3ccc(Cl)cc3)no2)CCN(c2ncnc3[nH]ccc23)CC1 [Example 44, 4-amino-N-[[3-(4-chlorophenyl)-1,2-oxazol-5-yl]methyl]-1-(7H-pyrrolo[2,3-d]pyrimidin-4-yl)piperidine-4-carboxamide] | 19000 nM |
| Cn1cc(CNC(=O)C2(N)CCN(c3ncnc4[nH]ccc34)CC2)cn1 [Example 45, 4-amino-N-[(1-methylpyrazol-4-yl)methyl]-1-(7H-pyrrolo[2,3-d]pyrimidin-4-yl)piperidine-4-carboxamide] | > 19000 nM |
| NC1(C(=O)NCc2cnc(-c3ccccc3)s2)CCN(c2ncnc3[nH]ccc23)CC1 [Example 46, 4-Amino-1-(7H-pyrrolo[2,3-d]pyrimidin-4-yl)-piperidine-4-carboxylic acid (2-phenyl-thiazol-5-ylmethyl)-amide] | 14000 nM |
| Cc1ccsc1CNC(=O)C1(N)CCN(c2ncnc3[nH]ccc23)CC1 [Example 47, 4-Amino-1-(7H-pyrrolo[2,3-d]pyrimidin-4-yl)-piperidine-4-carboxylic acid (3-methyl-thiophen-2-ylmethyl)-amide] | 3900 nM |
| NC1(C(=O)NCc2cc(Br)no2)CCN(c2ncnc3[nH]ccc23)CC1 [Example 48, 4-Amino-1-(7H-pyrrolo[2,3-d]pyrimidin-4-yl)-piperidine-4-carboxylic acid (3-bromo-isoxazol-5-ylmethyl)-amide] | 380 nM |
| Cc1cc(CNC(=O)C2(N)CCN(c3ncnc4[nH]ccc34)CC2)on1 [Example 49, 4-Amino-1-(7H-pyrrolo[2,3-d]pyrimidin-4-yl)-piperidine-4-carboxylic acid (3-methyl-isoxazol-5-ylmethyl)-amide] | 4200 nM |
| NC1(C(=O)NCc2cc3ccccc3[nH]2)CCN(c2ncnc3[nH]ccc23)CC1 [Example 50, 4-Amino-1-(7H-pyrrolo[2,3-d]pyrimidin-4-yl)-piperidine-4-carboxylic acid (1H-indol-2-ylmethyl)-amide] | 700 nM |
| Cn1cc(-c2cccc(C3(CN)CCN(c4ncnc5[nH]ccc45)CC3)c2)cn1 [Example 51, (4-(3-(1-Methyl-1H-pyrazol-4-yl)phenyl)-1-(7H-pyrrolo[2,3-d]pyrimidin-4-yl)piperidin-4-yl)methanamine] | < 17 nM |
| NC1(C(=O)Nc2cccc(-c3nc4ccccc4o3)c2)CCN(c2ncnc3[nH]ccc23)CC1 [Example 52, 4-Amino-1-(7H-pyrrolo[2,3-d]pyrimidin-4-yl)-piperidine-4-carboxylic acid (3-benzooxazol-2-yl-phenyl)-amide] | 5100 nM |
| Cc1cnc(NC(=O)C2(CN)CCN(c3ncnc4[nH]ccc34)CC2)s1 [Example 59, 4-(aminomethyl)-N-(5-methylthiazol-2-yl)-1-(7H-pyrrolo[2,3-d]pyrimidin-4-yl)piperidine-4-carboxamide] | 200 nM |
| NCC1(C(=O)Nc2ccc(F)cn2)CCN(c2ncnc3[nH]ccc23)CC1 [Example 60, 4-(aminomethyl)-N-(5-fluoropyridin-2-yl)-1-(7H-pyrrolo[2,3-d]pyrimidin-4-yl)piperidine-4-carboxamide] | 330 nM |
| NCC1(C(=O)Nc2ccc(C(F)(F)F)cn2)CCN(c2ncnc3[nH]ccc23)CC1 [Example 61, 4-(Aminomethyl)-1-(7H-pyrrolo[2,3-d]pyrimidin-4-yl)-N-(5-(trifluoromethyl)pyridin-2-yl)piperidine-4-carboxamide] | 47 nM |
| NCC1(C(=O)Nc2nc3ccccc3s2)CCN(c2ncnc3[nH]ccc23)CC1 [Example 63, 4-(Aminomethyl)-N-(benzo[d]thiazol-2-yl)-1-(7H-pyrrolo[2,3-d]pyrimidin-4-yl)piperidine-4-carboxamide] | 170 nM |
| Cn1cc(-c2cc(F)cc(C3(CN)CCN(c4ncnc5[nH]ccc45)CC3)c2)cn1 [Example 70, (4-(3-fluoro-5-(1-methyl-1H-pyrazol-4-yl)phenyl)-1-(7H-pyrrolo[2,3-d]pyrimidin-4-yl)piperidin-4-yl)methanamine] | 59 nM |
| NCC1(c2cc(F)cc(-c3cncc(F)c3)c2)CCN(c2ncnc3[nH]ccc23)CC1 [Example 71, (4-(3-Fluoro-5-(5-fluoropyridin-3-yl)phenyl)-1-(7H-pyrrolo[2,3-d]pyrimidin-4-yl)piperidin-4-yl)methanamine] | 17 nM |
| Cc1cnc(NC(=O)C2(CN)CCN(c3ncnc4[nH]cnc34)CC2)s1 [Example 72, 4-(Aminomethyl)-N-(5-methylthiazol-2-yl)-1-(9H-purin-6-yl)piperidine-4-carboxamide] | 310 nM |
| NCC1(c2cccc(-c3cn[nH]c3)c2)CCN(c2ncnc3[nH]ccc23)CC1 [Example 73, [4-[3-(1H-Pyrazol-4-yl)phenyl]-1-(7H-pyrrolo[3,2-e]pyrimidin-4-yl)piperidin-4-yl]methanamine] | 150 nM |
| Cc1ccncc1-c1cccc(C2(CN)CCN(c3ncnc4[nH]ccc34)CC2)c1 [Example 74, [4-[3-(4-methylpyridin-3-yl)phenyl]-1-(7H-pyrrolo[3,2-e]pyrimidin-4-yl)piperidin-4-yl]methanamine] | 55 nM |
| NCC1(c2cccc(-c3ccncc3)c2)CCN(c2ncnc3[nH]ccc23)CC1 [Example 75, [4-(3-pyridin-4-ylphenyl)-1-(7H-pyrrolo[3,2-e]pyrimidin-4-yl)piperidin-4-yl]methanamine] | 65 nM |
| NCC1(c2cccc(-c3cccnc3)c2)CCN(c2ncnc3[nH]ccc23)CC1 [Example 76, [4-(3-pyridin-3-ylphenyl)-1-(7H-pyrrolo[3,2-e]pyrimidin-4-yl)piperidin-4-yl]methanamine] | 33 nM |
| NCC1(c2cccc(-c3cncnc3)c2)CCN(c2ncnc3[nH]ccc23)CC1 [Example 77, [4-(3-pyrimidin-5-ylphenyl)-1-(7H-pyrrolo[3,2-e]pyrimidin-4-yl)piperidin-4-yl]methanamine] | 35 nM |
| NCC1(c2cccc(-c3ccco3)c2)CCN(c2ncnc3[nH]ccc23)CC1 [Example 78, [4-[3-(furan-2-yl)phenyl]-1-(7H-pyrrolo[3,2-e]pyrimindin-4-yl)piperidin-4-yl]methanamine] | 50 nM |
| NCC1(c2cccc(-c3ccoc3)c2)CCN(c2ncnc3[nH]ccc23)CC1 [Example 79, [4-(3-furan-3-ylphenyl)-1-(7H-pyrrolo[3,2-e]pyrimidin-4-yl)piperidin-4-yl]methanamine] | 48 nM |
| NCC1(c2cccc(-c3cnoc3)c2)CCN(c2ncnc3[nH]ccc23)CC1 [Example 80, [4-[3-(1,2-oxazol-4-yl)phenyl]-1-(7H-pyrrolo[3,2-e]pyrimidin-4-yl)piperidin-4-yl]methanamine] | 100 nM |
| NCC1(C(=O)Nc2ccc(Cl)cn2)CCN(c2ncnc3[nH]ccc23)CC1 [Example 81, 4-(Aminomethyl)-N-(5-chloropyridin-2-yl)-1-(7H-pyrrolo[2,3-d]pyrimidin-4-yl)piperidine-4-carboxamide] | 73 nM |
| NCC1(C(=O)Nc2ccc(C(F)(F)F)nc2)CCN(c2ncnc3[nH]ccc23)CC1 [Example 82, 4-(Aminomethyl)-1-(7H-pyrrolo[2,3-d]pyrimidin-4-yl)-N-(6-(trifluoromethyl)pyridin-3-yl)piperidine-4-carboxamide] | 54 nM |
